# Several values for one entry are separate records, joined by “and”; a condition that tells them apart may be missing. Equal values may be shown once.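 Dose response: 5 concentrations. Exposure: 48 h. Format: 96-well plates. Endpoint: linear interpolation; highest concentration if not reached. Abbreviation: GI50, concentration required for 50% inhibition of growth. At the TGI there is no net growth.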
# Tested on: LOX IMVI melanoma
# Assay: DTP human tumour cell line panel, 48 h
SMILES,TGI,GI50
NCCCCc1cc(O)c2c(c1O)C(=O)c1ccccc1C2=O,21.2 µM,–
Cc1ccccc1C(=O)N/N=C/c1ccc(Sc2nccn2C)c([N+](=O)[O-])c1,> 100 µM,–
CCn1c(-c2ccc(N=NNc3ccc(-c4n[nH]c(=S)n4CC)cc3)cc2)n[nH]c1=S,> 100 µM,–
COc1ccc2c(c1)[nH]c1c(/C=C/c3ccccc3)nccc12,63.2 µM,–
Clc1cc2c(cc1Cl)CC(NCCN1CCCC1)CC2 (stereo not drawn),27.2 µM,–
[N-]=[N+]=CC(=O)c1ccccc1C#CCCc1ccccc1,> 100 µM,–
CCN(CC(=O)O)C(=O)c1cccnc1,> 100 µM,–
NCCSC(c1ccccc1)c1ccccc1,31.2 µM,–
CCCCCCCCC/C=C/C=C/C(=O)NCC(=O)NC1C(O)C(O)C(Nc2ncnc3nc[nH]c23)OC1C(O)CO (stereo not drawn),0.0396 µM,0.00735 µM
COc1nc(C#CC2(O)CCCCC2)nc(OC)n1,11.7 µM,–
C[C@H](CCC(=O)O)[C@H]1CC[C@@]2(C)[C@@H]3C(=O)C[C@H]4C(C)(C)[C@@H](O)CC[C@]4(C)[C@H]3C(=O)C[C@]12C,> 100 µM,–

# Tested on: NCI-H226 lung
# Assay: DTP human tumour cell line panel, 48 h
SMILES,TGI,GI50
O=C(c1cccs1)N(C(=S)OC12CC3CC(CC(C3)C1)C2)c1ccccc1,> 100 µM,–
C(=N\NC1=NCCN1)/c1ccc(-c2cn3cc(/C=N/NC4=NCCN4)ccc3n2)cc1,> 100 µM,–
CC1CC[C@@]2(OC1)OC1C[C@H]3[C@@H]4CC=C5CC(OC6OC(CO)C(OC7OC(CO)C(O)C(OC8OCC(O)C(O)C8O)C7OC7OC(CO)C(O)C(O)C7O)C(O)C6O)CCC5(C)[C@H]4CCC3(C)C1[C@@H]2C (stereo partly drawn),> 25 µM,–
Nc1ccccc1S(=O)(=O)c1ccccc1,> 100 µM,–
Cc1c(N2C(=O)CS(=O)(=O)C2c2cccc(Oc3ccccc3)c2)c(=O)n(-c2ccccc2)n1C (stereo not drawn),> 100 µM,–
COc1cc2c(ccc3c4cc(OC)c(OC)cc4c[n+](C)c23)cc1O,9.14 µM,–
CNC(=O)OCc1c(CO)nc(SC)n1C,> 100 µM,–
CN(C)CC(CC1=C(CC(CN(C)C)N(C)C)CCC1)N(C)C (stereo not drawn),> 100 µM,–
CCC1CN(C(=O)c2ccccc2)C(Cc2c[nH]c3ccccc23)C(=O)C1CC(=O)OC (stereo not drawn),> 100 µM,–
CC12CC3OC(=O)C1COC14OC5(C2C1=O)C(O)(CCC1C4CC(O)C2(O)CC=CC(=O)C12C)C(=O)OC35C (stereo not drawn),> 100 µM,–
COc1ccc(C(=O)/C=C/c2cccc([N+](=O)[O-])c2)c(OC)c1,7.77 µM,1.65 µM
CCOC(=O)C(NC(=O)c1ccco1)(Nc1nc2ccc(OCC)cc2s1)C(F)(F)F (stereo not drawn),> 100 µM,–
CCC(C)C1=C(OC(C)=O)[N+]2([O-])Oc3ccc(-c4c(OC(C)=O)c(OC(C)=O)c(-c5ccc(OC(C)=O)cc5)c(OC(C)=O)c4OC(C)=O)cc3OC2(C(C)CC)C(=O)N1OC(C)=O (stereo not drawn),> 50 µM,–
COc1cccc2c1Cc1cc(-c3ccccc3)[n+](C)n1-2,47.7 µM,–
O=C(OCN1C(=O)C2C3C=CC(C2C1=O)C1C2C(=O)N(COC(=O)C4CCCN4)C(=O)C2C31)C1CCCN1 (stereo not drawn),> 100 µM,–
O=C(C[n+]1ccc2ccccc2c1)c1ccc2ccc3ccccc3c2c1,25.3 µM,–
NCCCCc1cc(O)c2c(c1O)C(=O)c1ccccc1C2=O,19.2 µM,–
Cc1ccccc1C(=O)N/N=C/c1ccc(Sc2nccn2C)c([N+](=O)[O-])c1,> 100 µM,–
CCn1c(-c2ccc(N=NNc3ccc(-c4n[nH]c(=S)n4CC)cc3)cc2)n[nH]c1=S,5.86 µM,–
CC(=O)C1=C(C)N(c2ccc(C)cc2)C2(O)C=CC(=O)C3C(=O)N(c4ccccc4)C(=O)C132 (stereo not drawn),34.3 µM,–
COc1ccc2c(c1)[nH]c1c(/C=C/c3ccccc3)nccc12,53.1 µM,–
Clc1cc2c(cc1Cl)CC(NCCN1CCCC1)CC2 (stereo not drawn),32.1 µM,–
[N-]=[N+]=CC(=O)c1ccccc1C#CCCc1ccccc1,98.3 µM,–
NCCSC(c1ccccc1)c1ccccc1,65.6 µM,–
CCCCCCCCC/C=C/C=C/C(=O)NCC(=O)NC1C(O)C(O)C(Nc2ncnc3nc[nH]c23)OC1C(O)CO (stereo not drawn),0.1 µM and 0.373 µM,0.00179 µM
C[C@H](CCC(=O)O)[C@H]1CC[C@@]2(C)[C@@H]3C(=O)C[C@H]4C(C)(C)[C@@H](O)CC[C@]4(C)[C@H]3C(=O)C[C@]12C,> 100 µM,–

# Tested on: NCI-H522 lung
# Assay: DTP human tumour cell line panel, 48 h
SMILES,TGI,GI50
CCOC(=O)C1=NN(c2ccc(C)cc2)C2=CC(C)=NN(C)C(=S)N21,36.5 µM,–
O=C(c1cccs1)N(C(=S)OC12CC3CC(CC(C3)C1)C2)c1ccccc1,46 µM,–
C(=N\NC1=NCCN1)/c1ccc(-c2cn3cc(/C=N/NC4=NCCN4)ccc3n2)cc1,> 100 µM,–
CC1CC[C@@]2(OC1)OC1C[C@H]3[C@@H]4CC=C5CC(OC6OC(CO)C(OC7OC(CO)C(O)C(OC8OCC(O)C(O)C8O)C7OC7OC(CO)C(O)C(O)C7O)C(O)C6O)CCC5(C)[C@H]4CCC3(C)C1[C@@H]2C (stereo partly drawn),9.69 µM,–
Cc1c(N2C(=O)CS(=O)(=O)C2c2cccc(Oc3ccccc3)c2)c(=O)n(-c2ccccc2)n1C (stereo not drawn),> 100 µM,–
COc1cc2c(ccc3c4cc(OC)c(OC)cc4c[n+](C)c23)cc1O,1.86 µM,–
CNC(=O)OCc1c(CO)nc(SC)n1C,> 100 µM,–
CN(C)CC(CC1=C(CC(CN(C)C)N(C)C)CCC1)N(C)C (stereo not drawn),> 100 µM,–
CCC1CN(C(=O)c2ccccc2)C(Cc2c[nH]c3ccccc23)C(=O)C1CC(=O)OC (stereo not drawn),> 100 µM,–
CC12CC3OC(=O)C1COC14OC5(C2C1=O)C(O)(CCC1C4CC(O)C2(O)CC=CC(=O)C12C)C(=O)OC35C (stereo not drawn),> 100 µM,–
NC(=O)c1c(NC(=O)c2ccccn2)sc2c1CCC(=O)C2,8.65 µM,0.821 µM
COc1ccc(C(=O)/C=C/c2cccc([N+](=O)[O-])c2)c(OC)c1,> 50 µM,1.6 µM
CCOC(=O)C(NC(=O)c1ccco1)(Nc1nc2ccc(OCC)cc2s1)C(F)(F)F (stereo not drawn),> 100 µM,–
CCC(C)C1=C(OC(C)=O)[N+]2([O-])Oc3ccc(-c4c(OC(C)=O)c(OC(C)=O)c(-c5ccc(OC(C)=O)cc5)c(OC(C)=O)c4OC(C)=O)cc3OC2(C(C)CC)C(=O)N1OC(C)=O (stereo not drawn),17.5 µM,–
O=C(O)C1C2CCC(O2)C1C(=O)Nc1cccc2cccnc12 (stereo not drawn),> 100 µM,–
COc1cccc2c1Cc1cc(-c3ccccc3)[n+](C)n1-2,> 100 µM,–
O=C(OCN1C(=O)C2C3C=CC(C2C1=O)C1C2C(=O)N(COC(=O)C4CCCN4)C(=O)C2C31)C1CCCN1 (stereo not drawn),> 100 µM,–
O=C(C[n+]1ccc2ccccc2c1)c1ccc2ccc3ccccc3c2c1,21.8 µM,–
NCCCCc1cc(O)c2c(c1O)C(=O)c1ccccc1C2=O,23.7 µM,–
Cc1ccccc1C(=O)N/N=C/c1ccc(Sc2nccn2C)c([N+](=O)[O-])c1,> 100 µM,–
CCn1c(-c2ccc(N=NNc3ccc(-c4n[nH]c(=S)n4CC)cc3)cc2)n[nH]c1=S,5.71 µM,–
CC(=O)C1=C(C)N(c2ccc(C)cc2)C2(O)C=CC(=O)C3C(=O)N(c4ccccc4)C(=O)C132 (stereo not drawn),22 µM,–
COc1ccc2c(c1)[nH]c1c(/C=C/c3ccccc3)nccc12,29 µM,–
Clc1cc2c(cc1Cl)CC(NCCN1CCCC1)CC2 (stereo not drawn),32.4 µM,–
[N-]=[N+]=CC(=O)c1ccccc1C#CCCc1ccccc1,30.9 µM,–
CCN(CC(=O)O)C(=O)c1cccnc1,> 100 µM,–
NCCSC(c1ccccc1)c1ccccc1,38.4 µM,–
CCCCCCCCC/C=C/C=C/C(=O)NCC(=O)NC1C(O)C(O)C(Nc2ncnc3nc[nH]c23)OC1C(O)CO (stereo not drawn),0.0758 µM and 0.277 µM,0.00453 µM
COc1nc(C#CC2(O)CCCCC2)nc(OC)n1,21.9 µM,–
C[C@H](CCC(=O)O)[C@H]1CC[C@@]2(C)[C@@H]3C(=O)C[C@H]4C(C)(C)[C@@H](O)CC[C@]4(C)[C@H]3C(=O)C[C@]12C,> 100 µM,–

# Tested on: SK-MEL-2 melanoma
# Assay: DTP human tumour cell line panel, 48 h
row,SMILES,TGI
1,CCOC(=O)C1=NN(c2ccc(C)cc2)C2=CC(C)=NN(C)C(=S)N21,> 100 µM
2,O=C(c1cccs1)N(C(=S)OC12CC3CC(CC(C3)C1)C2)c1ccccc1,39.3 µM
3,C(=N\NC1=NCCN1)/c1ccc(-c2cn3cc(/C=N/NC4=NCCN4)ccc3n2)cc1,> 100 µM
4,CC1CC[C@@]2(OC1)OC1C[C@H]3[C@@H]4CC=C5CC(OC6OC(CO)C(OC7OC(CO)C(O)C(OC8OCC(O)C(O)C8O)C7OC7OC(CO)C(O)C(O)C7O)C(O)C6O)CCC5(C)[C@H]4CCC3(C)C1[C@@H]2C (stereo partly drawn),> 25 µM
5,Nc1ccccc1S(=O)(=O)c1ccccc1,> 100 µM
